# In patent publication US20100168102A9, “Amide Derivatives as Kinase Inhibitors” (Devgen NV, priority 2005, published 2010):
# Where two headings read alike, the source gives them in different places.
# Assays:
# PKC epsilon = target: T1, PKC epsilon (Homo sapiens, UniProt Q02156); experiment: Biochemical assay for PKC epsilon (fluorescence polarization, Protein Kinase C Assay Kit, Red); conditions: read-out: IC50 μM PKCε
# T1 construct: purchased Invitrogen P2282
# T1 sequence (Q02156 1-737): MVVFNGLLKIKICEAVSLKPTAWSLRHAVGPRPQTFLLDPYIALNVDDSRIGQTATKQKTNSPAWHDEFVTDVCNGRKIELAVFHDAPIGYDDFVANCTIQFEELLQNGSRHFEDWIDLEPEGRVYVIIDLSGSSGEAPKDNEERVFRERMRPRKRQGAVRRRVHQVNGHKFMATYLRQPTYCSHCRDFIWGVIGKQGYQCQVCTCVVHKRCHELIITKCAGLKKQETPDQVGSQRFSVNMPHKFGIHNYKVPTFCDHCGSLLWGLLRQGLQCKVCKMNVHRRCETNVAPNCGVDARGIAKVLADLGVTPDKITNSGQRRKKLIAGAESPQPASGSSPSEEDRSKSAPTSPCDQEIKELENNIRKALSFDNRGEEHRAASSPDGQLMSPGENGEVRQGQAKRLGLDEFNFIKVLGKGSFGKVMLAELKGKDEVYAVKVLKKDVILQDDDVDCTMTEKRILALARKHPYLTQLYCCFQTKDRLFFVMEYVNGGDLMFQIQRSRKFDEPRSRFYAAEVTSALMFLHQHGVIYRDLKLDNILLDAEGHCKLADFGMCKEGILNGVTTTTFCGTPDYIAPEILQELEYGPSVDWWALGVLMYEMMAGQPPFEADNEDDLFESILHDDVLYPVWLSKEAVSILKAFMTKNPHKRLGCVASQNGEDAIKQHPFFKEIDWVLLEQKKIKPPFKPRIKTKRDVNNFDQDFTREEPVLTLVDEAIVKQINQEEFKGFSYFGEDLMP
# Protocol: The compounds were tested for inhibition of PKC epsilon.
# The inhibition assays were performed with a fluorescence polarization (FP) assay using the commercially available Protein Kinase C Assay Kit, Red, from Invitrogen (Product ID. No. P2941), essentially in accordance with the protocol supplied by the manufacturer. […] The isozyme PKC epsilon was also obtained from Invitrogen (Product ID No. P2282).
# Staurosporine was used as a positive control (2 μM).
# To perform the assay, 2 μl of a solution of the compound to be tested in DMSO (at each concentration) was added to 6 μl of a solution of the enzyme in 10 mM HEPES, 5 mM dithiotreitol, 0.1% Triton X-100, pH 7.4. The final concentration of the enzymes was 10 ng/ml.
# After incubating for 30 minutes at room temperature, 4 μl of a mixture of ATP and the protein substrate in 60 mM HEPES (pH7.4), 15 mM MgCl2, 0.3 mM CaCl2, 0.06% NP40 was added.
# After incubating for 80 minutes at room temperature, 3 μl of a mix solution of 500 mM EDTA (stop solution) and the Rhodamine-based PKC Red Tracer (from the Protein Kinase C Assay Kit) in BGG/phosphate buffer (pH7.4) with 0.02% NaN3 and 0.1% Triton X-100 was added and 5 μl of a the Anti-Phosphoserine antibody (also from the Protein Kinase C Assay Kit) in BGG/phosphate buffer (pH7.4) with 0.02% NaN3.
# The results were fitted to a curve using the XL-Fit algorithm and […] were calculated for each fitted curve, again using the XL-Fit algorithm.
# human ROCKα/ROCKII mix = target: T2, human ROCKα/ROCKII mix (Homo sapiens, UniProt O75116); experiment: Biochemical assay for ROCK (fluorescence polarization, ROCK IMAP Kit)
# T2 construct: purchased Upstate Biotechnology 14-451
# Protocol: The compounds were tested for inhibition of human ROCKα/ROCKII mix.
# The inhibition assays were performed with a fluorescence polarization (FP) assay using the commercially available ROCK IMAP Kit from Molecular Devices (Product ID. No. R8093), essentially in accordance with the protocol supplied by the manufacturer. […] The enzyme mix ROCKα/ROCKII was obtained from Upstate Biotechnology (Product ID No 14-451).
# In summary, the compound was screened in the wells of a 384 well plate for enzymatic inhibition with concentrations varying from 100 μM to 0.3 nM using a stepwise 3 (or 2)-fold dilution.
# To perform the assay, 1 μl of a solution of the compound to be tested in DMSO (at each concentration) was added to 2 μl of a solution of the enzyme in 10 mM Tris-HCl , 10 mM MgCl2, 0.1% BSA, 0.05% NaN3, pH 7.2. The final concentration of the enzyme was 2.6 nM.
# After incubating for 30 minutes at room temperature, 2 μl of a mixture of ATP and the protein substrate in 10 mM Tris-HCl, 10 mM MgCl2, 0.1% BSA, 0.05% NaN3, pH 7.2 was added. The final concentration of the ATP was 10 μM and final concentration of protein substrate was 0.2 μM.
# After incubating for 60 minutes at room temperature, 12 μl of the IMAP Binding Solution (mix of the IMAP Binding Buffer A (1×) and the IMAP Binding Reagent (from the ROCK IMAP kit)) was added.
# The mixture thus obtained (total volume: 17 μl) was incubated for 60 minutes at room temperature, upon which the fluorescence polarization was measured using an automated plate reader (Perkin Elmer, Model Envision 2100-0010 HTS) with FP filters: excitation filter FITC FP 480 and emission filters FITC FP P-pol 535 and FITC FP S-pol 535 (Perkin-Elmer). The results were fitted to a curve using the XL-Fit algorithm and IC50 values were calculated for each fitted curve, again using the XL-Fit algorithm.
# [1] = compounds of Formula XIV, Table 3
# [2] = Table 2, compounds of Formula XIII
# T2 sequence (O75116 11-552 limits assumed): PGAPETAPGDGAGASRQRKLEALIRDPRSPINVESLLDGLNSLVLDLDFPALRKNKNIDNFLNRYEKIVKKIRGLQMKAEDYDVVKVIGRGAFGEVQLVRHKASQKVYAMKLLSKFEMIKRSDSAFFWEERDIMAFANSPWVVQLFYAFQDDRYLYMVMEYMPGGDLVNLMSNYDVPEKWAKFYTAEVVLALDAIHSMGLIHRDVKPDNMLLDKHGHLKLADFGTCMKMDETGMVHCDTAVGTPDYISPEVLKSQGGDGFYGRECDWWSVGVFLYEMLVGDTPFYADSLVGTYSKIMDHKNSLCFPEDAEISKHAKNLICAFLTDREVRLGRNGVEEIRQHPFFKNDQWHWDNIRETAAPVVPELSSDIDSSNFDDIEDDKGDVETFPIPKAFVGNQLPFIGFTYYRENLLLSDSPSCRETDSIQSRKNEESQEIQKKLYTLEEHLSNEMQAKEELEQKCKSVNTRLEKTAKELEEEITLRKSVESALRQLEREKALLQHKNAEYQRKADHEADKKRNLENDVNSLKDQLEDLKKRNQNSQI
compound,measurement,setting,value
4-(1-Amino-2- phenethylcarbamoyl-ethyl)- N-pyridin-4-yl-benzamide [Compound 281],IC50,PKC epsilon; [1],0.5 to 5 µM
same,IC50,human ROCKα/ROCKII mix; [1],0.05 to 0.5 µM
4-(1-Amino-2-nonanoylamino-ethyl)- N-pyridin-4-yl-benzamide [Compound 38],IC50,PKC epsilon; [2],0.5 to 5 µM
same,IC50,human ROCKα/ROCKII mix; [2],0.05 to 0.5 µM
4-(1-Amino-2-{[1-(4-chloro- phenyl)- cyclobutanecarbonyl]- methyl- amino}-ethyl)- N-pyridin-4-yl-benzamide [Compound 464],IC50,human ROCKα/ROCKII mix,0.5 to 5 µM
4-(1-Amino-2-{[1-(4-chloro- phenyl)- cyclopentanecarbonyl]- methyl- amino}-ethyl)- N-pyridin-4-yl-benzamide [Compound 465],IC50,human ROCKα/ROCKII mix,0.5 to 5 µM
4-(1-Amino-2-{[1-(4-chloro- phenyl)- cyclopropanecarbonyl]- methyl- amino}-ethyl)- N-pyridin-4-yl-benzamide [Compound 463],IC50,human ROCKα/ROCKII mix,0.5 to 5 µM
4-(1-Amino-2-{[1-(4-fluoro- phenyl)- cyclopropanecarbonyl]- methyl- amino}-ethyl)- N-pyridin-4-yl-benzamide [Compound 473],IC50,human ROCKα/ROCKII mix,0.5 to 5 µM
"4-(1-Amino-2-{[2-(2,3,4- trimethoxy-phenyl)-acetyl]- methyl-amino}-ethyl)-N- pyridin-4-yl-benzamide [Compound 431]",IC50,human ROCKα/ROCKII mix,5 to 50 µM
4-(1-Amino-2-{[2-(2-fluoro- phenyl)-acetyl]-methyl- amino}-ethyl)- N-pyridin-4-yl-benzamide [Compound 466],IC50,PKC epsilon,5 to 50 µM
same,IC50,human ROCKα/ROCKII mix,0.5 to 5 µM
4-(1-Amino-2-{[2-(3-bromo- phenyl)-acetyl]-methyl- amino}-ethyl)- N-pyridin-4-yl-benzamide [Compound 456],IC50,PKC epsilon,5 to 50 µM
same,IC50,human ROCKα/ROCKII mix,0.5 to 5 µM
4-(1-Amino-2-{[2-(3-chloro- phenyl)-acetyl]-methyl- amino}-ethyl)- N-pyridin-4-yl-benzamide [Compound 459],IC50,PKC epsilon,5 to 50 µM
same,IC50,human ROCKα/ROCKII mix,0.5 to 5 µM
4-(1-Amino-2-{[2-(3-fluoro-4- methoxy-phenyl)-acetyl]- methyl- amino}-ethyl)- N-pyridin-4-yl-benzamide [Compound 470],IC50,PKC epsilon,5 to 50 µM
same,IC50,human ROCKα/ROCKII mix,0.5 to 5 µM
4-(1-Amino-2-{[2-(3-fluoro- phenyl)-acetyl]-methyl- amino}-ethyl)- N-pyridin-4-yl-benzamide [Compound 468],IC50,PKC epsilon,5 to 50 µM
same,IC50,human ROCKα/ROCKII mix,0.5 to 5 µM
4-(1-Amino-2-{[2-(4- hydroxy-3-nitro-phenyl)- acetyl]-methyl- amino]-ethyl)- N-pyridin-4-yl-benzamide [Compound 439],IC50,PKC epsilon,5 to 50 µM
same,IC50,human ROCKα/ROCKII mix,0.05 to 0.5 µM
4-(1-Amino-2-{[2-(4- trifluoromethyl-phenyl)- acetyl]-methyl- amino}-ethyl)- N-pyridin-4-yl-benzamide [Compound 458],IC50,PKC epsilon,5 to 50 µM
same,IC50,human ROCKα/ROCKII mix,0.5 to 5 µM
4-(1-Amino-2-{[2-(4-chloro- phenyl)-2-methyl-propionyl]- methyl- amino}-ethyl)- N-pyridin-4-yl-benzamide [Compound 462],IC50,human ROCKα/ROCKII mix,0.5 to 5 µM
4-(1-Amino-2-{[2-(4-fluoro- phenyl)-2-methyl-propionyl]- methyl- amino}-ethyl)- N-pyridin-4-yl-benzamide [Compound 472],IC50,human ROCKα/ROCKII mix,0.5 to 5 µM
4-(Amino-{1-[2-(4-fluoro-phenyl)-2-methyl-propionyl]-pyrrolidin-2-yl}-methyl)-N-pyridin-4-yl-benzamide [Compound 586],IC50,human ROCKα/ROCKII mix,0.5 to 5 µM
4-[1-Amino-2-(methyl- phenethyl-carbamoyl)-ethyl]- N-pyridin-4-yl-benzamide [Compound 282],IC50,human ROCKα/ROCKII mix; [1],0.05 to 0.5 µM
4-{Amino-[1-(2-methyl-2-thiophen-2-yl-propionyl)-pyrrolidin-2-yl]-methyl}-N-pyridin-4-yl-benzamide [Compound 548],IC50,human ROCKα/ROCKII mix,0.5 to 5 µM
"Cc1ccccc1CNC(=O)NCC(N)c1ccc(C(=O)Nc2ccncc2)cc1 (centres unmarked) [Compound 9, 4-{1-amino-2-[3-(2-methyl-benzyl)-ureido]-ethyl}-N-pyridin-4-yl-benzamide]",IC50,human ROCKα/ROCKII mix,0.05 to 0.5 µM
"COc1ccc(CNC(=O)NCC(N)c2ccc(C(=O)Nc3ccncc3)cc2)cc1 (centres unmarked) [Compound 10, 4-{1-amino-2-[3-(4-methoxy-benzyl)-ureido]-ethyl}-N-pyridin-4-yl-benzamide]",IC50,human ROCKα/ROCKII mix,0.05 to 0.5 µM
"NC(CNC(=O)Nc1ccc(F)cc1)c1ccc(C(=O)Nc2ccncc2)cc1 (centres unmarked) [Compound 19, 4-{1-amino-2-[3-(4-fluoro-phenyl)-ureido]-ethyl}-N-pyridin-4-yl-benzamide]",IC50,human ROCKα/ROCKII mix,0.05 to 0.5 µM
"COc1ccc(Cl)cc1NC(=O)NCC(N)c1ccc(C(=O)Nc2ccncc2)cc1 (centres unmarked) [Compound 27, 4-{1-amino-2-[3-(5-chloro-2-methoxy-phenyl)-ureido]-ethyl}-N-pyridin-4-yl-benzamide]",IC50,human ROCKα/ROCKII mix,0.05 to 0.5 µM
"NC(CNC(=O)c1ccc2ccccc2n1)c1ccc(C(=O)Nc2ccncc2)cc1 (centres unmarked) [Compound 112, Quinoline-2-carboxylic acid {2-amino-2-[4-(pyridin-4-ylcarbamoyl)-phenyl]-ethyl}-amide]",IC50,human ROCKα/ROCKII mix; [2],0.05 to 0.5 µM
"CN(Cc1ccccc1)C(=O)CC(N)c1ccc(C(=O)Nc2ccncc2)cc1 (centres unmarked) [Compound 214, 4-[1-Amino-2-(benzyl-methyl-carbamoyl)-ethyl]-N-pyridin-4-yl-benzamide]",IC50,human ROCKα/ROCKII mix; [1],0.05 to 0.5 µM
"Cc1ccc(NC(=O)CC(N)c2ccc(C(=O)Nc3ccncc3)cc2)cc1 (centres unmarked) [Compound 317, 4-(1-Amino-2-p-tolylcarbamoyl-ethyl)-N-pyridin-4-yl-benzamide]",IC50,human ROCKα/ROCKII mix; [1],0.05 to 0.5 µM
"CN(CC(N)c1ccc(C(=O)Nc2ccncc2)cc1)C(=O)Cc1ccc(F)c(F)c1 (centres unmarked) [Compound 484, 4-(1-Amino-2-{[2-(3,4-difluoro-phenyl)-acetyl]-methyl-amino}-ethyl)-N-pyridin-4-yl-benzamide]",IC50,human ROCKα/ROCKII mix,0.5 to 5 µM
"CN(CC(N)c1ccc(C(=O)Nc2ccncc2)cc1)C(=O)C1CC(=O)c2ccccc21 (centres unmarked) [Compound 508, 3-Oxo-indan-1-carboxylic acid {2-amino-2-[4-(pyridin-4-ylcarbamoyl)-phenyl]-ethyl}-methyl-amide]",IC50,human ROCKα/ROCKII mix,0.5 to 5 µM
"CC(C)(C(=O)N1CCCC1C(N)c1ccc(C(=O)Nc2ccncc2)cc1)c1ccsc1 (centres unmarked) [Compound 550, 4-{Amino-[1-(2-methyl-2-thiophen-3-yl-propionyl)-pyrrolidin-2-yl]-methyl}-N-pyridin-4-yl-benzamide]",IC50,human ROCKα/ROCKII mix,0.5 to 5 µM
